In publication PMC9800739, “Epigenetic drugs in somatostatin type 2 receptor radionuclide theranostics and radiation transcriptomics in mouse pheochromocytoma models” (Theranostics, 2023):
Read-outs that look alike come from different tables or passages of the source.

Columns and labels:
MPC tumors [1] = assay: Tumor growth of MPC allografts; format: in vivo, mouse; conditions: PET cohorts
Description: (§1) During anesthesia, animals were continuously warmed at 37°C. […] Animals were sacrificed using CO2 inhalation and cervical dislocation. […]
(§2) 70 1.1 Preparation of epigenetic drugs
(§3) 71 For in vitro application, VPA was freshly dissolved in cell culture medium and added to the
(§4) 72 cells at final concentrations between 10‒5 and 10‒2 mol/L. DAC was dissolved in H2O to obtain
(§5) 73 a 10‒4 mol/L stock solution that was stored at ‒20 °C. For each experiment, aliquots of the DAC
(§6) 74 stock were thawed and added to the cells at final concentrations between 10‒8 and 10‒5 mol/L.
(§7) 75 For in vivo application, VPA was dissolved at 0.26 mol/L in Dulbecco’s phosphate-buffered
(§8) 76 saline. DAC was dissolved at 0.04 mol/L in acetic acid (9.6 mol/L) to obtain a stock solution
(§9) 77 that was further diluted to 6.6×10‒4 mol/L in Dulbecco’s phosphate buffered. […]
(§10) 88 1.3 Tumor volumes in animal cohorts
(§11) 89 Animals with higher initial tumor volume were specifically included in cohorts that received
(§12) 90 epigenetic drugs in order to compensate for the growth-reducing effects of ET and to match
(§13) 91 tumor volumes as closely as possible across cohorts at the time of radiopharmaceutical injection

SSTR2 = conditions: cited from earlier work
From the text: HDAC and DNMT inhibitors can have different impacts depending on the cellular background. For example, in QGP-1 cells, DAC induced, but VPA inhibited SSTR2 gene expression.

MTT tumors [2] = assay: Tumor growth of MTT allografts; format: in vivo, mouse; conditions: PET cohorts
Description: as §1, §2, §3, §4, §5, §6, §7, §8, §9, §10, §11, §12, §13

MTT tumors [3] = conditions: for SUVmean tumor / SUVmax ratio tumor / muscle / SUVmax tumor / SUVmean ratio tumor / muscle: MTT
Description: All animal experiments were carried out according to the guidelines of the German Regulations for Animal Welfare and have been approved by the local Ethical Committee for Animal Experiments. A number of 4×10^6 MPC or MTT cells were re-suspended in 40 µL of Dulbecco's phosphate-buffered saline and injected subcutaneously into the shoulder of 10-15 week-old female nude mice (Rj:NMRI-Foxn1^nu/nu, Janvier Labs, Le Genest-Saint-Isle, France). Prior to imaging procedures, general anesthesia was induced and maintained with inhalation of 10% (v/v) desflurane in 30/10% (v/v) oxygen/air. During anesthesia, animals were continuously warmed at 37°C. Tumor growth was monitored three times per week using caliper measurements. Tumor volume was calculated assuming a tri-axial ellipsoid with the axes a, b, and c using the formula V = π/6×abc. Animals were sacrificed using CO2 inhalation and cervical dislocation.
Preparation of epigenetic drugs is described in Supplemental Information 1.1. Animals received VPA (1.7×10^‒3 mol/kg ≈ 250 mg/kg), DAC ([…] ≈ 1 mg/kg), or a combination of both, in Dulbecco's phosphate buffered saline (200 µL/30 g body weight), delivered as two consecutive intraperitoneal injections in a 72 h-interval. Applied doses were within the epigenetically effective dose range in mice, as reported elsewhere, [41]-[43]. The estimated human equivalent doses corresponded to 20‒30% of the clinically applied tumor-suppressive doses in patients, [45]. Animals in control groups received Dulbecco's phosphate buffered saline only. Multiple independent experiments were performed, always including animals of all treatment groups (Table 1).
Small animal positron emission tomography (PET) was performed using the nanoPET/CT scanner (Mediso Medical Imaging Systems, Budapest, Hungary). […] Recording, binning, framing, and image reconstruction were performed as reported previously. Dynamic imaging was performed for 60 min, static imaging between 40‒60 min after radiotracer injection. With each PET scan, a corresponding CT image was recorded and used for anatomical referencing and attenuation correction. […] Standardized uptake values (SUV) were determined and reported as SUVmean (VOI-averaged) and SUVmax (VOI-maximum). Details on quantitative PET image analysis are provided in Supplemental Information 1.4.
106 (VOIs) were created (40‒60 min frames) applying fixed thresholds for delineation of tumor
107 (30%), muscle (0%), kidneys (25%), and liver (35%). […]

MPC tumors [4] = format: in vivo, mouse; conditions: MPC
Description: During anesthesia, animals were continuously warmed at 37°C. […] Animals were sacrificed using CO2 inhalation and cervical dislocation.
107 (30%), muscle (0%), kidneys (25%), and liver (35%).
116 attenuation. Images were post-processed and analyzed using ROVER (ABX). Three-
118 kidneys (15%), and liver (25%). […]

SMILES: CCCC(CCC)C(=O)O [VPA, valproic acid]
- Vtumor, ET start (MPC tumors [1]; day 0 baseline, mean ± SEM): 0.27 ± 0.13 cm3
- Vtumor, ET start + 4 d (MPC tumors [1]; day 4, mean ± SEM): 0.46 ± 0.23 cm3
- SSTR2 expression (effect) (SSTR2; BON-1 cells, monotherapies and combined application): increased
- SSTR2 gene expression (effect) (SSTR2; QGP-1 cells): inhibited
- stimulating effects on SSTR2 expression and [111In]In-DOTA-TATE uptake, reversibility (SSTR2; one day after VPA withdrawal): largely reversible one day after VPA withdrawal
- Vtumor, ET start (MTT tumors [2]; day 0 baseline, mean ± SEM): 0.14 ± 0.05 cm3
- Vtumor, ET start + 4 d (MTT tumors [2]; day 4, mean ± SEM): 0.35 ± 0.05 cm3
- increase of average SUVmean of tumors vs control cohort (MTT tumors [3]; MTT tumors, VPA 250 mg/kg, DAC 1 mg/kg, single or combination, i.p. twice at 72 h interval, DAC P < 0.05, combination P < 0.01): 1.4 fold
- SUVmean tumor (MTT tumors [3]; [64Cu]Cu-DOTA-TATE, 40‒60 min p.i., day 1 after final ET, control or VPA 250 mg/kg, DAC 1 mg/kg days −3 and 0, mean ± SEM, DAC P < 0.05, VPA+DAC P < 0.001): 0.73 ± 0.08
- SUVmax ratio tumor / muscle (MTT tumors [3]; animal 1, 40‒60 min p.i.): 3.3
- SUVmax tumor (MTT tumors [3]; animal 1, 40‒60 min p.i.): 0.69
- SUVmean ratio tumor / muscle (MTT tumors [3]; animal 1, 40‒60 min p.i.): 3.20
- SUVmean tumor (MTT tumors [3]; animal 1, 40‒60 min p.i.): 0.34
- SUVmax ratio tumor / muscle (MTT tumors [3]; animal 2, 40‒60 min p.i.): 4.72
- SUVmax tumor (MTT tumors [3]; animal 2, 40‒60 min p.i.): 1.41
- SUVmean ratio tumor / muscle (MTT tumors [3]; animal 2, 40‒60 min p.i.): 10.52
- SUVmean tumor (MTT tumors [3]; animal 2, 40‒60 min p.i.): 0.70
- SUVmax ratio tumor / muscle (MTT tumors [3]; animal 3, 40‒60 min p.i.): 8.25
- SUVmax tumor (MTT tumors [3]; animal 3, 40‒60 min p.i.): 1.61
- SUVmean ratio tumor / muscle (MTT tumors [3]; animal 3, 40‒60 min p.i.): 7.63
- SUVmean tumor (MTT tumors [3]; animal 3, 40‒60 min p.i.): 0.71
- SUVmax ratio tumor / muscle (MTT tumors [3]; animal 4, 40‒60 min p.i.): 10.8
- SUVmax tumor (MTT tumors [3]; animal 4, 40‒60 min p.i.): 1.60
- SUVmean ratio tumor / muscle (MTT tumors [3]; animal 4, 40‒60 min p.i.): 11.4
- SUVmean tumor (MTT tumors [3]; animal 4, 40‒60 min p.i.): 0.73
- SUVmax ratio tumor / muscle (MTT tumors [3]; animal 5, 40‒60 min p.i.): 5.31
- SUVmax tumor (MTT tumors [3]; animal 5, 40‒60 min p.i.): 1.62
- SUVmean ratio tumor / muscle (MTT tumors [3]; animal 5, 40‒60 min p.i.): 7.80
- SUVmean tumor (MTT tumors [3]; animal 5, 40‒60 min p.i.): 0.74
- SUVmax ratio tumor / muscle (MTT tumors [3]; animal 6, 40‒60 min p.i.): 5.70
- SUVmax tumor (MTT tumors [3]; animal 6, 40‒60 min p.i.): 1.73
- SUVmean ratio tumor / muscle (MTT tumors [3]; animal 6, 40‒60 min p.i.): 9.73
- SUVmean tumor (MTT tumors [3]; animal 6, 40‒60 min p.i.): 0.86
- SUVmax ratio tumor / muscle (MTT tumors [3]; animal 7, 40‒60 min p.i.): 6.06
- SUVmax tumor (MTT tumors [3]; animal 7, 40‒60 min p.i.): 2.23
- SUVmean ratio tumor / muscle (MTT tumors [3]; animal 7, 40‒60 min p.i.): 9.95
- SUVmean tumor (MTT tumors [3]; animal 7, 40‒60 min p.i.): 1.06
- SUVmax ratio tumor / muscle (MTT tumors [3]; as SUVmean, mean ± SEM): 6.30 ± 0.94
- SUVmean ratio tumor / muscle (MTT tumors [3]; as SUVmean, mean ± SEM, DAC P < 0.05): 8.60 ± 1.04
- SUVmax tumor (MTT tumors [3]; as SUVmean, mean ± SEM, VPA+DAC P < 0.01): 1.55 ± 0.17
- percentage of MTT responders (SUV) (MTT tumors [3]; n = 7 per cohort, threshold control mean + 2×TE): 29%
- SUVmean tumor (MPC tumors [4]; [64Cu]Cu-DOTA-TATE, 40‒60 min p.i., day 1 after final ET, control or VPA 250 mg/kg, DAC 1 mg/kg days −3 and 0, mean ± SEM): 6.91 ± 1.19
- SUVmax ratio tumor / muscle (MPC tumors [4]; animal 1, 40‒60 min p.i.): 33.0
- SUVmax tumor (MPC tumors [4]; animal 1, 40‒60 min p.i.): 8.80
- SUVmean ratio tumor / muscle (MPC tumors [4]; animal 1, 40‒60 min p.i.): 60.0
- SUVmean tumor (MPC tumors [4]; animal 1, 40‒60 min p.i.): 4.22
- SUVmax ratio tumor / muscle (MPC tumors [4]; animal 2, 40‒60 min p.i.): 60.8
- SUVmax tumor (MPC tumors [4]; animal 2, 40‒60 min p.i.): 10.8
- SUVmean ratio tumor / muscle (MPC tumors [4]; animal 2, 40‒60 min p.i.): 67.2
- SUVmean tumor (MPC tumors [4]; animal 2, 40‒60 min p.i.): 5.61
- SUVmax ratio tumor / muscle (MPC tumors [4]; animal 3, 40‒60 min p.i.): 78.3
- SUVmax tumor (MPC tumors [4]; animal 3, 40‒60 min p.i.): 19.7
- SUVmean ratio tumor / muscle (MPC tumors [4]; animal 3, 40‒60 min p.i.): 91.2
- SUVmean tumor (MPC tumors [4]; animal 3, 40‒60 min p.i.): 8.55
- SUVmax ratio tumor / muscle (MPC tumors [4]; animal 4, 40‒60 min p.i.): 65.2
- SUVmax tumor (MPC tumors [4]; animal 4, 40‒60 min p.i.): 18.5
- SUVmean ratio tumor / muscle (MPC tumors [4]; animal 4, 40‒60 min p.i.): 100
- SUVmean tumor (MPC tumors [4]; animal 4, 40‒60 min p.i.): 9.24
- SUVmax ratio tumor / muscle (MPC tumors [4]; as SUVmean, mean ± SEM): 59.3 ± 9.54
- SUVmax tumor (MPC tumors [4]; as SUVmean, mean ± SEM): 14.5 ± 2.73
- SUVmean ratio tumor / muscle (MPC tumors [4]; as SUVmean, mean ± SEM): 79.6 ± 9.53
